Experimental data taken from publication PMC7221740, “Cyclic Synthetic Peroxides Inhibit Growth of Entomopathogenic Fungus Ascosphaera apis without Toxic Effect on Bumblebees” (Molecules, 2020).
Values after ≈ are worked out from the molar mass of the structure shown. Each block holds one compound with its values, some of them ahead of it.

Key:
[1] = system: bumblebees Bombus terrestris L.; experiment: Ability of bumblebees to fly; format: in vivo; settings: for Ability of bumblebees to fly in the contact action test: peroxides 30 mg/L in water with DMSO (5% vol.); for Decrease of the ability of bumblebees to fly after consumption of sugar syrup: feeding, versus control group
[2] = system: bumblebees Bombus terrestris L.; experiment: Toxic effect on bumblebees (feeding with inverted sugar syrup); format: in vivo; settings: concentration not given
Protocol: In the next step, we evaluated the toxicity of active peroxides 1–4, 6 towards bumblebees. Two approaches were used for this purpose. The first approach was a contact action of bumblebees with 30 mg/L solution of peroxide in water containing DMSO (5% vol.). The second approach was feeding of bumblebees with inverted sugar syrup containing peroxides 1–4, 6 (the concentration of peroxide was 30 mg/L) and DMSO (5% vol.). The mortality of bumblebees after their contact with solutions of peroxides 1–4, 6 was absent. […] However, after the consumption of sugar syrup containing difenoconazole or penconazole, the ability of bumblebees to fly was decreased by 1.4 times and 1.3 times, respectively (Figure 4). On average, bumblebees from the control group were in flight for 9 min 28 s. After the consumption of syrup with difenoconazole and penconazole (see Materials and methods), the time spent by insects in flight decreased to 6 min 36 s and 7 min 17 s, respectively.
Peroxide 1–4, 6 (0.3 mg or 3.0 mg) was added to 500 µL of DMSO, and the resulting solution was diluted with 60% inverted sugar syrup to 10 mL. After that, 30 mg/L or 300 mg/L solution of peroxide in inverted sugar syrup containing DMSO (5% vol.) was obtained. A solution of DMSO (500 µL) in 60% inverted sugar syrup was used as the control solution. […]

[3] = system: bumblebees Bombus terrestris L.; experiment: Toxic effect on bumblebees (contact action); settings: concentration not given
[4] = system: Ascosphaera apis; experiment: Inhibition of radial growth of Ascosphaera apis mycelium in potato-saccharose agar; format: cell-based; settings: 72 h; for inhibition at 30 µg/mL / EC50: Ascosphaera apis; for inhibition at 30 µg/mL / Mycelium Growth Inhibition (I), %: A. apis, concentration 30 mg/L, potato-saccharose agar, 25 °C; for inhibition at 30 µg/mL: read-out: Mycelium Growth Inhibition (I), %; for EC50: A. apis mycelium growth, read-out: EC50 (mg/L) ± SD, fungicidal activity
[5] = system: A. apis; design: method as in PMID 22263693; settings: ref [55]; read-out: IC50 against A. apis; cited from earlier work
[6] = system: A. apis; design: method as in PMID 30862950; settings: ref [54]; cited from earlier work

SMILES: CC1COC(Cn2cncn2)(c2ccc(Oc3ccc(Cl)cc3)cc2Cl)O1 (centres unmarked) [difenoconazole]
Ability of bumblebees to fly in the contact action test [1]: did not affect the ability to fly
Decrease of the ability of bumblebees to fly after consumption of sugar syrup [1]: 1.4 times
Bumblebee mortality after consumption of syrup with commercial fungicide [2]: had not increased
Bumblebee mortality in contact with commercial fungicide [3]: had not increased

SMILES: C=CCC1(C(=O)OCC)CCC2(C)OOC1(C)O2 (centres unmarked) [Compound 1, Ethyl-2-allyl-1,5-dimethyl-6,7,8-trioxabicyclo[3.2.1]octane-2-carboxylate]
inhibition at 30 µg/mL [4]: 94%
EC50 [4]: 4 ± 0.2 mg/L (≈ 15.6 µM)

SMILES: CCCCCC(=O)O[C@H]1C(=O)c2c(O)cc(O)cc2O[C@@H]1c1ccccc1 [Pinobanksin-3-hexanoate]
IC50 [5]: 23 ± 2 µM

SMILES: CC(C)(C)C(=O)C(Oc1ccc(Cl)cc1)n1cncn1 (centres unmarked) [Triadimefon 9, Triadimefon]
Mycelium Growth Inhibition (I), % [4]: 91%
inhibition at 30 µg/mL [4]: < 100%
EC50 [4]: 7.1 ± 0.8 mg/L (≈ 24.2 µM)

melting point: 43 to 44 °C
SMILES: C=CCC12CCC3(C)OC1(C)OOC2(C)O3 [Compound 8, 3a-Allyl-3,6,7a-trimethyltetrahydro-3H,4H-3,6-epoxy[1,2]-dioxolo[3,4-b]pyran]
inhibition at 30 µg/mL [4]: 25%

SMILES: COc1ccc(C(=O)/C=C/c2ccc(O)cc2)c(O)c1CC=C(C)C [4-hydroxyderricin]
MIC against A. apis [6]: 6.25 µg/mL (≈ 18.5 µM)

melting point: 130 to 131 °C
SMILES: CC12OOC(C)(OO1)C2C12CC3CC(CC(C3)C1)C2 (centres unmarked) [Compound 6, 7-(Adamantan-1-yl)-1,4-dimethyl-2,3,5,6-tetraoxabicyclo[2.2.1]heptane]
inhibition at 30 µg/mL [4]: 94%
EC50 [4]: 1.6 ± 0.1 mg/L (≈ 6.01 µM)

SMILES: CCCC(Cn1cncn1)c1ccc(Cl)cc1Cl (centres unmarked) [penconazole]
Ability of bumblebees to fly in the contact action test [1]: did not affect the ability to fly
Decrease of the ability of bumblebees to fly after consumption of sugar syrup [1]: 1.3 times
Bumblebee mortality after consumption of syrup with commercial fungicide [2]: had not increased
Bumblebee mortality in contact with commercial fungicide [3]: had not increased

melting point: 89 to 90 °C
SMILES: COc1ccc(C23OOC4(C)OC(C)(CCC42)O3)cc1 (centres unmarked) [Compound 7, 3-(4-Methoxyphenyl)-6,7a-dimethyltetrahydro-3H,4H-3,6-epoxy[1,2]dioxolo[3,4-b]pyran]
inhibition at 30 µg/mL [4]: 53%

SMILES: CO/N=C(/C(=O)OC)c1ccccc1COc1ccccc1C [Kresoxim-methyl 10, Kresoxim-methyl]
Mycelium Growth Inhibition (I), % [4]: 88%
Mycelium Growth Inhibition (I), % ([4]; listed as Kresoxim-methyl): did not completely inhibit
inhibition at 30 µg/mL [4]: < 100%
EC50 [4]: < 1 mg/L
